Source: patent US8975259B2, “Compositions and methods for inhibiting G protein signaling” (University of Rochester, priority 2007, dated 2015)
Like-named read-outs stand apart in the source and are kept apart here.

Tests used:
[1] = test system: differentiated HL60 cells; experiment: Chemokinesis (fMLP in upper and lower Boyden chambers); type: cell-based, human; conditions: fMLP in both chambers; result in words
Procedure: Same as A with purified human neutrophils.
Chemotaxis was assayed using a Boyden chamber (Neuro Probe, Gaithersburg, Md.) using 3-μm polyvinylpyrrolidone-free polycarbonate filters (Neuro Probe). HL60 cells (differentiated for 4 days) were washed with and resuspended in HBSS containing 1% bovine serum albumin to a final concentration of 1×10^6 cells/ml. Primary human neutrophils were washed and resuspended in NaCl buffer (140 mM NaCl, 4 mM KCl, 10 mM D-glucose, 10 mM HEPES, pH 7.4, 1 mM MgCl2, and 1 mM CaCl2) to a final concentration of 1×10^6 cells/mi. Chemoattractant [1 μM granulocyte-macrophage-colony stimulating factor (GM-CSF), 10 nM IL-8, or 250 nM fMLP; Sigma Aldrich] was added to the bottom chamber in HBSS containing 1% bovine serum albumin. Cell suspensions (0.2×10^6 cells/well) were added to the top wells of the Boyden chamber and allowed to migrate for 1 h at 37° C. […] Chemotactic HL60 cells were scored by counting three microscope fields and subtracting the number of cells from fMLP wells as background. […] For all the small molecules, effects of the compounds on chemokinesis was analyzed by measuring chemotaxis in the presence of 250 nM fMLP in both the upper and lower chambers of the Boyden Chamber and measuring changes in transwell migration. […]

[2] = Toxicity on repeated daily dosing in animals; type: in vivo
Gβ1γ2 = Gβ1γ2 (UniProt P54311+P63212); experiment: Surface plasmon resonance direct binding to Gβ1γ2; set-up: made in house; host or cells: Sf9 insect cells (baculovirus); conditions: for kon: read-out: association rate constant (kon, ka); for koff: read-out: dissociation rate constant (koff, kd)
Description: To understand the protein binding characteristics of compounds a surface plasmon resonance (SPR) method was developed for monitoring direct small molecule binding to G βγ subunits using a Reichert SPR instrument. In addition to binding affinity, binding kinetics can be obtained from this analysis. […] To obtain the data in herein, 3000 refractive index units (RIU) of Gβ1γ2 was immobilized to maximize detection of small molecule binding (Karlsson et al., 2006; Markgren et al., 2001; Rich et al., 2001) and compounds were injected at 75 μl/min and changes in bulk refractive index were accounted for in a reference flow cell. […] This method is used to analyze compound binding kinetics and calculate equilibrium binding constants to test the mechanisms of action and selectivity of various “hot spot” binding compounds.
Direct binding of “hot spot” binding small molecules was assessed using the Reichert SR7000 Surface Plasmon Resonance dual chamber instrument equipped with an autosampler (Reichert, Depew, N.Y.). To activate the sensor chip surface, a mixture of 0.1 M 1-ethyl-3-(3-dimethylaminopropyl) carbodiimide hydrochloride and 0.05 M N-hydroxysuccinimide was injected (flow rate 5 μl/min) over the sensor surface. Streptavidin (100 μg/ml; prepared in 20 mM sodium acetate buffer, pH 5.5) was coupled to the sensor chip surface followed by quenching the remaining activated carboxyl groups with 1 M ethanolamine, pH 8.5. bGβ1γ2 was conjugated to the streptavidin-coated chip in running buffer (50 mM HEPES, pH 7.6, 1 mM EDTA, 100 mM NaCl, 0.1% C12E10, and 1 mM dithiothreitol) to achieve 2000 micro-refractive index units. A second reference cell was treated similarly, but bGβ1γ2 was excluded. Direct binding of small molecules was tested out at room temperature with a flow rate of 75 μl/min. Compounds were prepared in running buffer and injected for 10 min followed by a dissociation phase of 10 min. The obtained sensorgrams were corrected for nonspecific background by running the same experiment in series over an identical sensor surface with immobilized streptavidin, blocked with biotin, without bGβγ. […] Best fit kinetic parameters were determined using kinetic titration model and ClampXP ver. 3.5, which accounts for incomplete dissociation between injections (Karisson et al., 2006).

PLCβ2 = experiment: Gβ1γ2-dependent activation of purified PLCβ2; type: biochemical
Procedure: Purified PLCβ2 (0.25 ng) was assayed in the presence (▴) or absence (▪) of 100 nM purified Gβ1γ2. […] Assays contained 10 ng of purified p101/p110 PI3Kγ heterodimer with or without 100 nM purified Gβ1γ2. Left panel: (▴) 100 nM Gβ1γ2 or (▪) no βγ. […] M119 or M201 and 25 nM purified GRK2 were added simultaneously to 250 nM biotinylated Gβ1γ2 (bGβ1γ2) immobilized on streptavidin agarose. GRK2 was detected with antibody to GRK2. Data are representative (mean ±SEM, except D) repeated at least three times each. […] 30 nM bGβ1γ2 was incubated with either 30 nM PLCβ2 or PLCβ3 in the presence or absence of M119 or M201 for 16 h at 4° C. before precipitation with avidin agarose and detection with PLCβ2,or Gβ antibodies. […] Same as 4E with PLCβ3.
The ability of NSC119910 analogs to selectively modulate activation PLC-β2 and -β3 was analyzed. In this assay, PLC-β2 and PLC-β3 were purified and PLC enzymatic activity was measured in the presence or absence of purified βy and in the presence or absence of analog.
Nevertheless, M119 and M201 were tested in in vitro reconstitution assays of Gβγ-dependent activation of PLCβ2, PLCβ3 and PI3Kγ and binding to GRK2. […] These are only two of multiple diverse compounds identified, indicating potential for multiple modes of Gβγ-dependent target modulation by these small molecules.

Chain of Gβ1γ2 (P54311 whole entry): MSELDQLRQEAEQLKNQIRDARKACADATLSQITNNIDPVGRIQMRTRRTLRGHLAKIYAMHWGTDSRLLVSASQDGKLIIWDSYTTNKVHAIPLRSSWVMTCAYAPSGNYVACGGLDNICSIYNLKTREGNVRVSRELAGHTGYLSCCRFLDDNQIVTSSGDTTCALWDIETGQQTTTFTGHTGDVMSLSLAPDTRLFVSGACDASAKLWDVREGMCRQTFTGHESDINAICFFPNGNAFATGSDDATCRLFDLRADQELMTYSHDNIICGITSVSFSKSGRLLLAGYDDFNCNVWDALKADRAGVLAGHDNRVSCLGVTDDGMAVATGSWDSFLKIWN
Chain of Gβ1γ2 (P63212 2-68 limits assumed): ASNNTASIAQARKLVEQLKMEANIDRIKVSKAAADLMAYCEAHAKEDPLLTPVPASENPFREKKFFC

Row | Kd (Gβ1γ2; SPR, read-out: Kd) | Compound | effect on chemokinesis [1] | toxicity in intact animals and histology of lung, liver, brain, heart and kidney ([2]; 10, 30 and 100 mg/kg/day daily injections, two weeks) | kon (Gβ1γ2; SPR) | koff (Gβ1γ2; SPR) | toxicity ([2]; 100 mg/kg/day intraperitoneal, one week) | IC50 (PLCβ2; read-out: IC50 for attenuation of Gβ1γ2-dependent activation of PLCβ2) | Kd (Gβ1γ2) | effect on Gβ1γ2-dependent activation of PLCβ2 (PLCβ2; result in words)
1 | ~400 nM | O=C(O)c1ccccc1-c1c2ccc(=O)c(O)c-2oc2c(O)c(O)ccc12 (racemic) [Gallein] | Neither M119 nor gallein had any effects | nor any overt toxicity | 1130 ± 17 M⁻¹ s⁻¹ | 0.00043 s⁻¹ |  |  |  | 
2 |  | O=C(O)C1CCCCC1c1c2ccc(=O)c(O)c-2oc2c(O)c(O)ccc12 (stereo not drawn) [Compound M119, cyclohexanecarboxylic acid, 2-(4,5,6-trihydroxy-3-oxo-3H-xanthen-9-yl)-(9cl)] | Neither M119 nor gallein had any effects |  | 2000 M⁻¹ s⁻¹ | 0.0002 s⁻¹ | no overt toxicity was observed | 3000 nM | 100 nM | 
3 |  | O=C(O)C1CCCCC1c1c2ccc(=O)cc-2oc2cc(O)ccc12 (stereo not drawn) [Compound M119B] |  |  |  |  |  |  |  | did not have effects
